Experimental data from publication PMC11649918, “Development of a RIPK1 degrader to enhance antitumor immunity” (Nature Communications, 2024).
Residues, ends and D or L forms follow the SMILES beside them. *: point of attachment. Cbz = O=C(OCc1ccccc1)*; CH2F = FC*

Experiments:
RIPK1 [1] = biological target: T1, RIPK1 (Homo sapiens, UniProt Q13546); experiment: RIPK1 degradation by Western blot in Jurkat cells; format: cell-based; conditions: 4 h pretreatment followed by LD4172
T1 construct: whole-cell lysates were prepared using a lysis buffer; endogenous in cells; host or cells: Jurkat
T1 sequence (Q13546 1-671): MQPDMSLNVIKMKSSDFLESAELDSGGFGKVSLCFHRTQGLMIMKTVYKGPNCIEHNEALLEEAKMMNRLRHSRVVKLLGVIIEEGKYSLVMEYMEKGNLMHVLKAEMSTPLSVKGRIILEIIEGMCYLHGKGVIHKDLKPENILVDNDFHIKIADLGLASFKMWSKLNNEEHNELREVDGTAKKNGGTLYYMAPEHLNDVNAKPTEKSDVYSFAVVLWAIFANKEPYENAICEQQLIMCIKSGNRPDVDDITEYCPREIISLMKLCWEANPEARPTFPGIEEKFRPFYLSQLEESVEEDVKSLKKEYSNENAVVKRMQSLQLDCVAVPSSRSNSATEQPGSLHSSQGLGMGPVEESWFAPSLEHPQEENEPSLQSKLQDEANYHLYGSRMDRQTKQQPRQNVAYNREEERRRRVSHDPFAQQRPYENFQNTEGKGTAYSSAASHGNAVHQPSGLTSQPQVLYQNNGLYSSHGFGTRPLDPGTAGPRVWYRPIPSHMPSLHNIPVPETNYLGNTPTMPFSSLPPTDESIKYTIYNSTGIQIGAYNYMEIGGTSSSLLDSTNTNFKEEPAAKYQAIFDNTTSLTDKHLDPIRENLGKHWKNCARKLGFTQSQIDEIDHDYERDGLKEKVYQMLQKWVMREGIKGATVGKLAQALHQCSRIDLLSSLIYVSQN
Procedure: (§1) Cells were seeded into six-well plates at a density of 5 × 10^5 cells/mL in 2 mL of complete culture medium. Following an overnight adaptation period, cells were treated with serially diluted LD4172 compounds for 24 h. After treatment, whole-cell lysates were prepared using a lysis buffer (1×RIPA supplemented with protease and phosphatase inhibitor cocktail). Protein concentrations in the lysates were measured using the BCA protein assay. Subsequently, equal amounts of protein (20 µg) from each sample were loaded onto a sodium dodecyl sulfate-polyacrylamide gel and separated by electrophoresis (Bio-Rad) at 120 V for 1.5 h. The separated proteins were then transferred to a polyvinylidene fluoride (PVDF) membrane using a Transblot Turbo system (Bio-Rad).
(§2) After blocking for 1 h at room temperature in 1% BSA-TBST, the membranes were incubated overnight at 4 °C with specific primary antibodies (diluted at 1:1000 in TBST) targeting the proteins of interest, including anti-RIPK1 (3493, Cell Signaling Technology (CST)), anti-cleaved caspase 3 (9661, CST), anti-cleaved caspase7 (8438, CST), anti-cleaved PARP (5625, CST), anti-HMGB1 (3935, CST), anti-calreticulin (12238, CST), and anti-β-actin (4970, CST). […] All western blots were processed and quantified using ImageJ software, and protein levels were normalized to β-actin loading controls.

RIPK1 [2] = biological target: T2, RIPK1 (Mus musculus, UniProt Q60855); experiment: RIPK1 degradation by Western blot in B16F10 cells; format: cell-based; conditions: 4 h pretreatment followed by LD4172
T2 construct: endogenous in cells; host or cells: B16F10
T2 sequence (Q60855 1-656): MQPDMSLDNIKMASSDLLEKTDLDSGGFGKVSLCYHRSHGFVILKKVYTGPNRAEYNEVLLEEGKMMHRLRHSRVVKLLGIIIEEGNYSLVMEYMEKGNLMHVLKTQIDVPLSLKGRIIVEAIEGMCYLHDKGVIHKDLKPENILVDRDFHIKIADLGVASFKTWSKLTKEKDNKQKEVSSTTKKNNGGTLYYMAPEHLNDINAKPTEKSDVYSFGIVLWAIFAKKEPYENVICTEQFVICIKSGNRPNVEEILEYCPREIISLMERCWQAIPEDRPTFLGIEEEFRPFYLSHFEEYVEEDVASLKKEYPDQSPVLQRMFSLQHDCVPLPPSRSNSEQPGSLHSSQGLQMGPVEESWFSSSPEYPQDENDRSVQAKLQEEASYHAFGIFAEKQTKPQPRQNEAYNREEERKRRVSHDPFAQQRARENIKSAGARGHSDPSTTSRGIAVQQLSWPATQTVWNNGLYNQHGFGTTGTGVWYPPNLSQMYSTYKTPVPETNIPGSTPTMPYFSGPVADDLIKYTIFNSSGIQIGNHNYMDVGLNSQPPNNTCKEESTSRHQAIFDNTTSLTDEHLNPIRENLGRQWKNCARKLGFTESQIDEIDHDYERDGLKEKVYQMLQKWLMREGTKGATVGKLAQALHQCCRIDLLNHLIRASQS
Procedure: as §1, §2

NF-κB = NF-κB reporter assay in B16F10 cells; format: cell-based, mouse; conditions: TNFα 100 ng/mL, compound 1 μM
Procedure: One million B16F10 cells were seeded in T25 flask. The next day, cells were transfected with the NanoLuc Reporter Vector with NF-κB Response Element (pNL3.2.NF-kB-RE; Promega; Cat. No. N1111) using Lipofectamine 3000 transfection reagent (Invitrogen) at a ratio of 1:3, DNA:Lipofectamine. After 24 h, cells were collected and seeded at 2000 cells per well in triplicate in an opaque 96 well plate. 24 h later the media was discarded and replaced with fresh DMEM media and treated with indicated cytokine cocktail for 24 h. Reporter expression was read out using the Nano-Glo Luciferase Assay System (Promega) according to the manufacturer’s instruction.

B16F10 cells = experiment: TNFα-mediated apoptosis in B16F10 cells (Annexin V/PI, caspase 3/7, PARP); format: cell-based, mouse; conditions: 72 h
Procedure: Fig. 3 LD4172 sensitizes B16F10 cells to TNFα-mediated apoptosis. B16F10 cells were treated with or without TNFα (100 ng/mL), Z-VAD-FMK (25 μM), LD4172 (1 μM), and/or T2I (1 μM) for 72 h. A NF-κB activity in B16F10 cells expressing a NanoLuc reporter for NF-κB response. Data represent the mean NF-κB activity ± SD (n = 3 biologically independent samples from two independent experiments). Statistical significance was determined using a two-tailed unpaired t-test, with P values indicated. B Representative flow cytometry dot plots showing apoptosis in B16F10 cells from three independent experiments (n = 3 biologically independent samples per experiment). […] Cell death was quantified by PI uptake using the Cytation 5 imager. D Top: Percentage of PI+ B16F10 cells after 72 h of the indicated treatments, calculated as PI+ (%) = (Number of PI+ cells/Total cells) × 100%, using the Cytation 5 imager. […] Statistical significance was determined using a two-tailed unpaired t-test, with P values indicated. […] E Top: Quantification of extracellular ATP levels secreted by B16F10 cells. Data represent mean extracellular ATP levels ± SD (n = 4 biologically independent samples from one experiment), with statistical significance determined by a two-tailed unpaired t-test, and P values indicated. […]

B16F10 tumors = experiment: B16F10 syngeneic tumor model; format: in vivo, C57BL/6J mice; conditions: compound 20 mg/kg i.p. daily plus anti-PD1 100 µg every 3 days
Procedure: To establish a syngeneic mouse model, 3 × 10^5 B16F10 cells resuspended in PBS were mixed 1:1 with Matrigel (354262, Corning) and subcutaneously injected into the right flank of 7-week-old wild-type female C57BL/6J mice on day 0. Tumor sizes were measured on day 6, and mice were grouped such that the average tumor volume was ~100 mm³. Treatments began on day 7. Antibodies, including anti-PD1 (100 μg, BE0146, BioXcell) and anti-CD8 (500 μg, BE0004, BioXcell), were administered intraperitoneally every 3 days in 100 μL volumes. The RIPK1 degrader LD4172 and RIPK1 kinase inhibitor T2I were delivered in 200 μL of vehicle solution (30% PEG400, 5% Tween-80, 5% DMSO) daily via intraperitoneal injection (20 mg/kg). T-cell depletion or blocking was confirmed by flow cytometry in tumor-bearing mice. Tumors were measured every 3 days starting from day 7 post-injection until euthanasia. Mice were euthanized via CO2 inhalation when the tumor size reached 1.5 cm in the longest dimension or if severe necrosis was observed. Tumor volume was calculated using the formula: (L × W ²)/2, where L represents the length and W the width. To comply with ethical guidelines and ensure data quality, animals were humanely euthanized either when tumors reached the maximum permitted size or immediately before flow cytometry analysis, which required fresh tumor tissues. […]

Row | SMILES | LD4172-induced RIPK1 degradation after pretreatment (RIPK1 [1]) | LD4172-induced RIPK1 degradation after pretreatment (RIPK1 [2]) | further results
1 | NS(=O)(=O)OC[C@@H]1C[C@@H](n2ccc3c(N[C@H]4CCc5ccccc54)ncnc32)C[C@@H]1O [MLN4924] | reversed | reversed | 
2 | CCn1cc(-c2ccc3c(c2)CCN3C(=O)Cc2cccc(OC(F)(F)F)c2)c2c(N)ncnc21 [T2I] |  |  | TNF-α-induced NF-κB activity (NF-κB): not; TNFα-mediated apoptosis (B16F10 cells; TNFα 100 ng/mL, compound 1 μM): did not trigger TNFα-mediated apoptosis; tumor response in combination with anti-PD1 (B16F10 tumors): failed to sensitize B16F10 tumors to anti-PD1 treatment
3 | COC(=O)C[C@H](NC(=O)[C@H](C)NC(=O)[C@@H](NC(=O)OCc1ccccc1)C(C)C)C(=O)CF [Z-VAD-FMK] (Cbz-Val-Ala-Asp(OMe)-CH2F) |  |  | reversal of apoptosis induced by TNFα and LD4172 (B16F10 cells; Z-VAD-FMK 25 μM): reversed
4 | CC(C)C[C@H](NC(=O)[C@H](CCc1ccccc1)NC(=O)CN1CCOCC1)C(=O)N[C@@H](Cc1ccccc1)C(=O)N[C@@H](CC(C)C)C(=O)[C@@]1(C)CO1 [carfilzomib] | reversed | reversed | 
